Results: PubChem BioAssay (NCI)
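Each compound was tested at five concentrations against cells in 96-well plates for 48 hours. TGI is the concentration that stops growth completely.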

How the values were obtained:
Assay in all cases: inhibition of tumour cell growth, NCI panel, 48 h
DU-145 prostate = test system: DU-145 prostate
OVCAR-3 ovarian = test system: OVCAR-3 ovarian
IGROV1 ovarian = test system: IGROV1 ovarian
SNB-75 CNS = test system: SNB-75 CNS
HCT-116 colon = test system: HCT-116 colon
K-562 leukemia = test system: K-562 leukemia
CCRF-CEM leukemia = test system: CCRF-CEM leukemia
A549 NSCLC = test system: A549 NSCLC
SF-539 CNS = test system: SF-539 CNS
NCI-H23 lung = test system: NCI-H23 lung
MDA-MB-231 breast = test system: MDA-MB-231 breast
OVCAR-4 ovarian = test system: OVCAR-4 ovarian
SK-MEL-5 melanoma = test system: SK-MEL-5 melanoma
SK-OV-3 ovarian = test system: SK-OV-3 ovarian
RPMI-8226 leukemia = test system: RPMI-8226 leukemia
SK-MEL-2 melanoma = test system: SK-MEL-2 melanoma
OVCAR-5 ovarian = test system: OVCAR-5 ovarian
MDA-N = test system: MDA-N
786-0 renal = test system: 786-0 renal
NCI-H226 lung = test system: NCI-H226 lung

| SMILES | TGI (DU-145 prostate) [µM] | TGI (OVCAR-3 ovarian) [µM] | TGI (IGROV1 ovarian) [µM] | TGI (SNB-75 CNS) [µM] | TGI (HCT-116 colon) [µM] | TGI (K-562 leukemia) [µM] | TGI (CCRF-CEM leukemia) [µM] | TGI (A549 NSCLC) [µM] | TGI (SF-539 CNS) [µM] | TGI (NCI-H23 lung) [µM] | TGI (MDA-MB-231 breast) [µM] | TGI (OVCAR-4 ovarian) [µM] | TGI (SK-MEL-5 melanoma) [µM] | TGI (SK-OV-3 ovarian) [µM] | TGI (RPMI-8226 leukemia) [µM] | TGI (SK-MEL-2 melanoma) [µM] | TGI (OVCAR-5 ovarian) [µM] | TGI (MDA-N) [µM] | TGI (786-0 renal) [µM] | TGI (NCI-H226 lung) [µM] |
| --- | --- | --- | --- | --- | --- | --- | --- | --- | --- | --- | --- | --- | --- | --- | --- | --- | --- | --- | --- | --- |
| Cc1c(/C=N/NC(=S)Nc2ccc(Cl)cc2)c(=O)n(-c2ccccc2)n1C | > 100 | > 65.3 | 45.2 | 35.8 | > 62.5 | > 100 | > 100 | > 95.9 | 28.2 | 54.5 | 1.99 | > 57.1 | > 31.6 | 35.8 | > 100 | 69 | > 100 | > 100 | 31.2 | 53.8 |
| COc1ccc2nc3c([N+](=O)[O-])ccc4c3c(c2c1)NCCN4CCN(C)C | 4.91 | 2.4 | 3.15 | 1.57 | 1.3 | > 10 | 4 | 2.19 | 1.71 | 2.86 | 1.88 | 0.697 | 2.08 | 0.973 | 4.62 | 2.92 | 9.89 | 1.99 | 1.79 | 7.13 |
| Cc1cc(=O)oc2c(CNC(CO)C(=O)O)c(O)ccc12 (stereo not given) | > 100 | > 100 | > 100 | > 100 | > 100 | > 100 | > 100 | > 100 | > 100 | > 100 | > 100 | > 100 | > 100 | > 100 | > 100 | > 100 | > 100 | > 100 | > 100 | > 100 |
